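Tested at 5 concentrations; 48 h exposure; 96-well plates; endpoints linearly interpolated, else capped at highest concentration. At the GI50, growth is halved.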 Activity calls are given as the source filed them. Cut-off read from the data, not from the text of the source: active = GI50 up to about 1.1 µM and inactive = higher. Some results are limits rather than exact numbers.

The values below come from ChEMBL document CHEMBL1201862, “PubChem BioAssay data set” (2004).

Among the test systems are SNB-19; HCC 2998; Hs-578T; CCRF-CEM; BT-549; OVCAR-3; NCI-H460; OVCAR-5; RXF 393; SK-OV-3; Malme-3M; UACC-257; SNB-75; HOP-92; U-251; NCI-H226; UACC-62; SN12C.
What all share (test): NCI anticancer screen, dose series, 48 h

Take `O=C(/C=C/c1ccc(O)c(O)c1)NCCc1ccc(-c2ccccc2)cc1`: the GI50 in the assay on SNB-19 is > 100 µM (inactive); with HCC 2998 it was 54.3 µM (inactive); in the assay on Hs-578T, > 100 µM (inactive); in the assay with CCRF-CEM it was 26.5 µM (inactive); in the assay with BT-549, 74.5 µM (inactive); in the assay with OVCAR-3, 20.4 µM (inactive). In addition, the GI50 with NCI-H460 was 48.9 µM (inactive); with OVCAR-5 it was 87.7 µM (inactive); in the assay with RXF 393, 57.1 µM (inactive); in the assay on SK-OV-3, > 100 µM (inactive); in the assay with Malme-3M, 17.9 µM (inactive); in the assay with UACC-257, > 100 µM (inactive). Moreover, the GI50 with SNB-75 is > 100 µM (inactive).

Regarding `Cc1cc(C)n(C(=CC(=O)C(Cl)Cl)n2nc(C)cc2C)n1`, the GI50 in the assay on SNB-19 was 10.7 µM (inactive); in the assay with Hs-578T it was 5.21 µM (inactive); in the assay with CCRF-CEM it was 1.85 µM (inactive); with BT-549, 2.45 µM (inactive); with HOP-92, 9.31 µM (inactive); in the assay with U-251, 5.12 µM (inactive). Further, the GI50 in the assay with OVCAR-3 is 3.66 µM (inactive); in the assay on NCI-H460 it was 6.97 µM (inactive); in the assay with OVCAR-5 it was 3.48 µM (inactive); with RXF 393 it was 2.61 µM (inactive); in the assay with SK-OV-3 it was 23.5 µM (inactive); in the assay with NCI-H226 it was 0.735 µM (active). The GI50 in the assay with Malme-3M is 4.35 µM (inactive); with UACC-62, 1.66 µM (inactive); in the assay with UACC-257, 1.32 µM (inactive); in the assay with SNB-75, > 100 µM (inactive).

As to `COc1ccc2c(c1OC)OC[C@@H](C1=CC(=O)C=C(O)C1=O)C2`, the GI50 in the assay on SN12C was 16.2 µM (inactive); in the assay with SNB-19, 16 µM (inactive); with HCC 2998, 17.2 µM (inactive); in the assay on Hs-578T it was 20.6 µM (inactive); in the assay with CCRF-CEM, 1.36 µM (inactive); in the assay on BT-549 it was 12.8 µM (inactive). Moreover, the GI50 with HOP-92 was 1.89 µM (inactive); in the assay with U-251, 11.7 µM (inactive); in the assay on OVCAR-3, 7.62 µM (inactive); in the assay on NCI-H460 it was 11.8 µM (inactive); in the assay on OVCAR-5, 18 µM (inactive); in the assay with RXF 393, 6.4 µM (inactive). Further, the GI50 is 16.6 µM (inactive) in the assay on SK-OV-3; 19.6 µM (inactive) in the assay with NCI-H226; 12 µM (inactive) in the assay on Malme-3M; 12.1 µM (inactive) in the assay with UACC-62; 13 µM (inactive) with UACC-257; 9.62 µM (inactive) in the assay with SNB-75.

Turning to `COc1ccc(-c2cc(-c3ccc(Nc4ccnc5cc(Cl)ccc45)cc3)nc(N)c2C#N)cc1`, the GI50 with SNB-19, in the assay with HCC 2998, in the assay with BT-549, with HOP-92, in the assay on U-251 and in the assay with OVCAR-3 was > 100 µM (inactive) each time. In addition, the GI50 in the assay on NCI-H460, in the assay with OVCAR-5, in the assay on RXF 393, in the assay with SK-OV-3, in the assay with NCI-H226 and in the assay with Malme-3M was > 100 µM (inactive) in each case. The GI50 in the assay with UACC-62 and with SNB-75 was > 100 µM (inactive) each time.

In the case of `N#CC1(C#N)NC(c2cccs2)C(C#N)(C#N)NC1c1cccs1` (centres undefined), the GI50 with SN12C was 43.2 µM (inactive); in the assay on SNB-19 it was 55.2 µM (inactive); in the assay on HCC 2998 it was 57.1 µM (inactive); in the assay with Hs-578T, 43.2 µM (inactive); in the assay with CCRF-CEM, 22.2 µM (inactive); in the assay on BT-549 it was 21.2 µM (inactive). The GI50 in the assay with HOP-92 was 23 µM (inactive); with U-251, 22.8 µM (inactive); in the assay on OVCAR-3, 25.2 µM (inactive); in the assay on NCI-H460, 37.3 µM (inactive); with OVCAR-5 it was 31.9 µM (inactive); with RXF 393, 31.7 µM (inactive). In addition, the GI50 in the assay on SK-OV-3 was 33.7 µM (inactive); in the assay with NCI-H226, 53.1 µM (inactive); in the assay with Malme-3M, 41.9 µM (inactive); in the assay with UACC-62 it was 20.6 µM (inactive); in the assay on UACC-257, > 100 µM (inactive); with SNB-75, 27.4 µM (inactive).
